{
  "source": "patent US20220096535A1",
  "about": "“COMBINATION DRUG THERAPIES OF PDE-5 INHIBITORS AND INHALED NITRIC OXIDE” (BELLEROPHON THERAPEUTICS, priority 2019, published 2022)",
  "test": "Drug-drug interaction study between pulsed, inhaled nitric oxide and sildenafil in healthy volunteers",
  "procedure": "Inhaled Nitric Oxide (iNO) has been approved for use in infants with hypoxic respiratory failure. Nitric oxide is a selective pulmonary vasodilator, whose action is mediated by the cyclic guanosine monophosphate (cGMP) pathway. […] The objective of this study is to investigate the potential pharmacodynamic interaction between pulsed iNO and sildenafil in healthy volunteers.\nFive healthy volunteers received sildenafil for 24 hours prior to the addition of iNO. Changes in pharmacodynamics parameters such as Heart Rate, Blood Pressure, and Oxygen Saturation after dosing with both drugs was assessed for 27 hours and hourly for 4 hours post iNO discontinuation.\nFIG. 7 illustrates the protocol design for this study. Briefly, on Day 1, subjects were dosed with sildenafil alone. One dose of 20 mg sildenafil was administered every […] on day 1 for a total of 3 doses on day 1. Vital signs (heart rate, blood pressure, and oxygen saturation) were assessed beginning 1 hour prior to administration of sildenafil and every 30 minutes until 2.5 hours after each dose of sildenafil. Adverse events were also monitored. On days 2-3, the sildenafil regimen was continued as administered on day 1, and supplemented with 27.5 hours of pulsed iNO therapy at 75 mcg/kg individual body weight (IBW)/hr (INOPulse). Vital signs were assessed beginning 1 hour prior to administration of iNO and every 30 minutes until 2.5 hours after each dose of sildenafil. Upon discontinuation of iNO, vital signs were measured hourly for a 4-hour period, and subjects were monitored for syncope and lightheadedness. Nitric oxide metabolites were measured throughout administration of iNO and for 4 hours post-discontinuation of iNO.",
  "data": [
    {"smiles": "[N]=O", "note": "[iNO, nitric oxide]", "values": [
      {"measurement": "Synergistic interaction (hypotensive drug-drug interaction) between iNO and sildenafil", "setting": "even at peak levels of metabolites, all volunteers", "value": "No synergistic interaction"},
      {"measurement": "Other adverse events", "setting": "iNO 75 mcg/kg IBW/hr co-administered with 20 mg sildenafil", "value": "no other adverse events were identified"},
      {"measurement": "Syncope, lightheadedness, or signs of rebound upon discontinuation of iNO", "setting": "monitored for 4 hours after iNO discontinuation, sildenafil background", "value": "no instances of syncope, lightheadedness, or signs of possible rebound"},
      {"measurement": "Systolic and diastolic blood pressures during co-administration of iNO, compared to first 3 doses of sildenafil alone", "setting": "pulsed iNO 75 mcg/kg IBW/hr for 27.5 hours with 20 mg sildenafil, sildenafil doses 4 and 5, and peak nitric oxide metabolites (doses 6 and 7)", "value": "no further decline"}
    ]},
    {"smiles": "CCCc1nn(C)c2c(=O)[nH]c(-c3cc(S(=O)(=O)N4CCN(C)CC4)ccc3OCC)nc12", "note": "[sildenafil]", "values": [
      {"measurement": "Blood pressure after dosing with sildenafil alone", "setting": "5 healthy volunteers, 20 mg sildenafil every 6 hours, all 3 doses on day 1, within 2.5 hours after dosing", "value": "drop in blood pressure"}
    ]}
  ]
}
